The assay concerns the target T1, JAK3 (Homo sapiens, UniProt P52333).
T1 construct: The Ramos B-cell line was acquired from ATCC (ATCC Catalog No. CRL-1596); host or cells: Ramos B-cell line (human)
T1 sequence (P52333 1-1124): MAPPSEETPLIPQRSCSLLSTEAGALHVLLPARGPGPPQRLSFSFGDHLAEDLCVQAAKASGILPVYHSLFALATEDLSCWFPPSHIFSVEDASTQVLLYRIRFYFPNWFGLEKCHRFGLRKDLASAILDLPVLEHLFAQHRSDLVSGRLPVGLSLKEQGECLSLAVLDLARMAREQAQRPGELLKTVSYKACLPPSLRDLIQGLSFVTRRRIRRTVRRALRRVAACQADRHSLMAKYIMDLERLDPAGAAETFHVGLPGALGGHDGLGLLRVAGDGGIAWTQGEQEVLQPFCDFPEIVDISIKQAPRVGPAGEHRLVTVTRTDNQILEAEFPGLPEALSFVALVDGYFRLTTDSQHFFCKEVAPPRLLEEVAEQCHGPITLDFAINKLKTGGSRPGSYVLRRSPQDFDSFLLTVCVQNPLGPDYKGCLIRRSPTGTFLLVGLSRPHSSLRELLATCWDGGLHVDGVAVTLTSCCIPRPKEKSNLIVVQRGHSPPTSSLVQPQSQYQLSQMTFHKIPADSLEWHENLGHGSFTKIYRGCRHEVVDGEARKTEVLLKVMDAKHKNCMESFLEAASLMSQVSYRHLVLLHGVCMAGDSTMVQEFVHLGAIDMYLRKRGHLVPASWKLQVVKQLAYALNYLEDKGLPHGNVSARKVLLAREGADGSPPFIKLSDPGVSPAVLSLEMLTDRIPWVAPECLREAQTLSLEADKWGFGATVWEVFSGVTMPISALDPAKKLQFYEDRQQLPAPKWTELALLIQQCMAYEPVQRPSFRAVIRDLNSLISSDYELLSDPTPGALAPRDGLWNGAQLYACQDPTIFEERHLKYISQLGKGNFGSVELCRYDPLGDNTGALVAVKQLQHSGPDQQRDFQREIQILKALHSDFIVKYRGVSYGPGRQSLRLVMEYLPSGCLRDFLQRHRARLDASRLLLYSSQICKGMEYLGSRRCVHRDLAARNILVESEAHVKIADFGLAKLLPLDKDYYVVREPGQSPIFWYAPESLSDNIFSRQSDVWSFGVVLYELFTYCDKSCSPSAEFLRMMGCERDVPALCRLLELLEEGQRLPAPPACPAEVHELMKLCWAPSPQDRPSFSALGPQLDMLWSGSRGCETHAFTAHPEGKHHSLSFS
Kind of assay: Assay for CD23 expression on Ramos B-cells stimulated by IL-4 (Table IV: ability to inhibit JAK3 activity). The following applies: tested under conditions described in Example 3 (so in the source). The class given is cell-based. An excerpt:
One means of assaying for such inhibition is detection of the effect of the 2,4-pyrimidinediamine compounds on the upregulation of downstream gene products. In the Ramos/IL4 assay, B-cells are stimulated with the cytokine Interleukin-4 (IL-4) leading to the activation of the JAK/Stat pathway through phosphorylation of the JAK family kinases, JAK1 and JAK3, which in turn phosphorylate and activate the transcription factor Stat-6. […] To study the effect of inhibitors (for example, the 2,4-substituted pyrimindinediamine compounds described herein) on the JAK1 and JAK3 kinases, human Ramos B cells are stimulated with human IL-4. 20 to 24 hours post stimulation, cells are stained for upregulation of CD23 and analyzed using FACS.
B-cells stimulated with cytokine Interleukin-4 (IL-4) activate the JAK/Stat pathway through phosphorylation of the JAK family kinases, JAK-1 and JAK-3, which in turn phosphorylate and activate the transcription factor Stat-6. […] To study the effect of inhibitors on the JAK family kinases, human Ramos B cells were stimulated with human IL-4 and the surface expression of CD23 was measured.
The day before the experiment, Ramos B-cells were diluted to 3.5×10^5 cells/mL to ensure that they were in a logarithmic growth phase.
Cells were spun down and suspended in RPMI with 5% serum. 5×10^4 cells were used per point in a 96-well tissue culture plate. Cells were pre-incubated with compound or DMSO (Sigma-Aldrich, St. Louis, Mo., Cat No. D2650) vehicle control for 1 hour in a 37° C. incubator. Cells were then stimulated with IL-4 (Peprotech Inc., Rocky Hill, N.J., Cat No. 200-04) for a final concentration of 50 units/mL for 20-24 hours. […] Detection was performed using a BD LSR I System Flow Cytometer, purchased from Becton Dickinson Biosciences of San Jose, Calif.
The compound designations in Table IV are consistent with those of Tables I-II above.

Structures are written as SMILES. Counter-ions that a name gives are not always drawn.

The values that follow come from patent US11174251B2, “Compositions and methods for inhibition of the JAK pathway” (Rigel Pharmaceuticals, Inc., priority 2010, dated 2021).

Broadly, the IC50 is the concentration at which inhibition is half-maximal. The low end stands for greater potency, the high end for weaker potency. `Cc1cnc(Nc2cc(C)c(C(=O)OC(C)(C)C)c(C)c2)nc1Nc1ccc2oc(=O)[nH]c2c1` [Compound I-150, N2-(4-tert-butoxycarbonyl-3,5-dimethyl)phenyl-5-methyl-N4-(2-oxo-2,3-dihydro-1,3-benzoxazol-5-yl)-2,4-pyrimidinediamine]: the IC50 was < 500 nM.

As for `Cc1cnc(Nc2cc(C)c(C)c(C)c2)nc1Nc1ccc2oc(=O)n(C)c2c1` [Compound I-126, 5-(2-(3,4,5-trimethylphenylamino)-5-methylpyrimidin-4-ylamino)-3-methylbenzo[d]oxazol-2(3H)-one trifluoroacetate salt], the IC50 is < 500 nM.

Take `COc1ccc(Nc2ncc(F)c(Nc3cc(F)c4oc(=O)[nH]c4c3)n2)cc1C` [Compound I-180, 5-(2-(4-methoxy-3-methylphenylamino)-5-fluoropyrimidin-4-ylamino)-7-fluorobenzo[d]oxazol-2(3H)-one trifluoroacetate salt]: the IC50 is < 500 nM.

In turn, `Cc1cc(Nc2ncc(CN3CCCC3)c(Nc3ccc4oc(=O)[nH]c4c3)n2)cc(C)c1C` [Compound I-98, 5-(2-(3,4,5-trimethylphenylamino)-5-((pyrrolidin-1-yl)methyl)pyrimidin-4-ylamino)benzo[d]oxazol-2(3H)-one] gave an IC50 of 5000 to 10000 nM.

Take `O=c1[nH]c2cc(Nc3nc(Nc4ccc5ccccc5c4)ncc3[N+](=O)[O-])ccc2o1` [II-6, 5-(2-(naphthalen-2-ylamino)-5-nitropyrimidin-4-ylamino)benzo[d]oxazol-2(3H)-one trifluoroacetate salt]: the IC50 was > 10000 nM.

Turning to `Cc1cnc(Nc2cccc(N(C)C)c2)nc1Nc1ccc2oc(=O)[nH]c2c1` [Compound I-24, 5-[2-(3-Dimethylamino-phenylamino)-5-methyl-pyrimidin-4-ylamino]-3H-benzooxazol-2-one trifluoroacetate salt], the IC50 was < 500 nM.

Regarding `Cc1ccc(Nc2ncc(F)c(Nc3ccc4oc(=O)[nH]c4c3)n2)cc1-c1ccncc1` [Compound I-203, 5-(2-(4-methyl-3-(pyridin-4-yl)phenylamino)-5-fluoropyrimidin-4-ylamino)benzo[d]oxazol-2(3H)-one], the IC50 was < 500 nM.

`Cc1ccc(Nc2ncc(C)c(Nc3ccc4oc(=O)[nH]c4c3)n2)cc1C(=O)O` [Compound I-152, N2-(3-carboxy-4-methyl)phenyl-5-methyl-N4-(2-oxo-2,3-dihydro-1,3-benzoxazol-5-yl)-2,4-pyrimidinediamine] came in with an IC50 of 5000 to 10000 nM.

As for `Cc1ccc(Nc2ncc(F)c(Nc3ccc4oc(=O)[nH]c4c3)n2)cc1C#N` [Compound I-1, 5-(5-fluoro-4-(2-oxo-2,3-dihydrobenzo[d]oxazol-5-ylamino)pyrimidin-2-ylamino)-2-methylbenzonitrile formate salt], the IC50 is < 500 nM.

Take `Cc1cnc(Nc2cc(C)c(F)c(CO)c2)nc1Nc1ccc2oc(=O)[nH]c2c1` [Compound I-154, N2-(4-fluoro-3-hydroxymethyl-5-methyl)phenyl-5-methyl-N4-(2-oxo-2,3-dihydro-1,3-benzoxazol-5-yl)-2,4-pyrimidinediamine]: the IC50 is < 500 nM.

As for `COc1cccc(Nc2ncc(C)c(Nc3ccc4oc(=O)[nH]c4c3)n2)n1` [II-20, N2-(6-methoxypyridin-2-yl)-5-methyl-N4-(2-oxo-2,3-dihydro-1,3-benzoxazol-5-yl)-2,4-pyrimidinediamine], the IC50 was < 500 nM.

Regarding `COC(=O)c1cnc(Nc2ccccc2)nc1Nc1ccc2oc(=O)[nH]c2c1` [Compound I-39, 4-(2-oxo-2,3-dihydro-benzooxazol-5-ylamino)-2-phenylamino-pyrimidine-5-carboxylic acid methyl ester trifluoroacetate salt], the IC50 is > 10000 nM.

With `COCCOc1ccc(Nc2ncc(Cl)c(Nc3ccc4oc(=O)[nH]c4c3)n2)c(F)c1OCCOC` [Compound I-78, 5-(5-chloro-2-(2-fluoro-3,4-bis(2-methoxyethoxy)phenylamino)pyrimidin-4-ylamino)benzo[d]oxazol-2(3H)-one trifluoroacetate salt], the IC50 is < 500 nM.

On to `Cc1cnc(Nc2cc(C)c(Br)c(C)c2)nc1Nc1ccc2oc(=O)[nH]c2c1` [Compound I-149, N2-(4-bromo-3,5-dimethyl)phenyl-5-methyl-N4-(2-oxo-2,3-dihydro-1,3-benzoxazol-5-yl)-2,4-pyrimidinediamine], for which the IC50 was < 500 nM.

`Cc1cnc(Nc2cc(C)c(C)c(C)c2)nc1Nc1cc(/C=C/CCl)c2oc(=O)[nH]c2c1` [Compound I-96, 5-(2-(3,4,5-trimethylphenylamino)-5-methylpyrimidin-4-ylamino)-7-((E)-3-chloroprop-1-enyl)benzo[d]oxazol-2(3H)-one] showed an IC50 of 500 to 5000 nM.

In the case of `COc1cc(Nc2ncc(C)c(Nc3ccc4oc(=O)[nH]c4c3)n2)cc(C)c1F` [Compound I-105, 5-(2-(4-fluoro-3-methoxy-5-methylphenylamino)-5-methylpyrimidin-4-ylamino)benzo[d]oxazol-2(3H)-one], the IC50 was < 500 nM.

Regarding `COc1cc(Nc2ncc(C)c(Nc3ccc4oc(=O)n(C)c4c3)n2)cc(C)c1C` [Compound I-125, 5-(2-(3-methoxy-4,5-dimethylphenylamino)-5-methylpyrimidin-4-ylamino)-3-methylbenzo[d]oxazol-2(3H)-one trifluoroacetate salt], the half-maximal inhibitory concentration (IC50) is < 500 nM.

With `COc1cccc(Nc2nccc(Nc3ccc4oc(=O)[nH]c4c3)n2)c1F` [Compound I-23, 5-(2-(2-fluoro-3-methoxyphenylamino)pyrimidin-4-ylamino)benzo[d]oxazol-2(3H)-one], the IC50 is 500 to 5000 nM.

As for `[2H]C([2H])([2H])Oc1cc(C)cc(Nc2ncc(F)c(Nc3ccc4oc(=O)[nH]c4c3)n2)c1` [Compound I-175, 5-(5-fluoro-2-(3-d3-methoxy-5-methylphenylamino)pyrimidin-4-ylamino)benzo[d]oxazol-2(3H)-one trifluoroacetate salt], the IC50 was < 500 nM.

Take `Cc1cnc(Nc2ncc(C)c(Nc3ccc4oc(=O)[nH]c4c3)n2)cc1C` [II-14, N2-(4,5-dimethylpyridin-2-yl)-5-methyl-N4-(2-oxo-2,3-dihydro-1,3-benzoxazol-5-yl)-2,4-pyrimidinediamine]: the IC50 was > 10000 nM.

For `Cc1cnc(Nc2ccc(Br)cc2F)nc1Nc1ccc2oc(=O)[nH]c2c1` [Compound I-28, 5-[2-(4-Bromo-2-fluoro-phenylamino)-5-methyl-pyrimidin-4-ylamino]-3H-benzooxazol-2-one], the IC50 was < 500 nM.

The compound `Cc1cc(C)nc(Nc2ncc(C)c(Nc3ccc4oc(=O)[nH]c4c3)n2)c1` [II-15, N2-(4,6-dimethylpyridin-2-yl)-5-methyl-N4-(2-oxo-2,3-dihydro-1,3-benzoxazol-5-yl)-2,4-pyrimidinediamine] gave an IC50 of 500 to 5000 nM.

For the compound `Cc1cnc(Nc2cc(C)c(C(=O)O)c(C)c2)nc1Nc1ccc2oc(=O)[nH]c2c1` [Compound I-140, N2-(4-carboxy-3,5-dimethyl)phenyl-5-methyl-N4-(2-oxo-2,3-dihydro-1,3-benzoxazol-5-yl)-2,4-pyrimidinediamine], the half-inhibitory concentration (IC50) fell in the range of 500 to 5000 nM.
